Key:
[1] = tested on: albumin-induced epileptogenesis; assay: EEG recording from awake rats during albumin-induced epileptogenesis; assay type: in vivo, rat
[2] = target: T1, astrocyte specific glutamate transporter, SLC1A2 (Rattus norvegicus, UniProt P31596); assay: Whole cell patch recording of NMDA-mediated EPSCs in cortical pyramidal neurons; assay type: cell-based
T1 construct: In vitro intracellular recordings were obtained from pyramidal neurons (layer 2-3) 23-28 h following the in vivo treatment; from tissue; host or cells: acute rat neocortical slices (astrocytic transporter; recordings from layer 2-3 pyramidal neurons)
Experimental: In vitro intracellular recordings were obtained from pyramidal neurons (layer 2-3) 23-28 h following the in vivo treatment with albumin or from control rats. Currents were recorded using the whole cell patch configuration, as described previously (Pavlovsky et al., 2003). In brief, glass pipettes were pulled from capillaries using a vertical puller (Narashige, Greenvale, N.Y.) and filled with a solution comprising (in mM): 150 CsCl, 1 MgCl2, 10 HEPES, 4 Na2ATP, 0.1 CaCl2, and 1.1 mM EGTA, pH adjusted to 7.2 with a final osmolarity of 290-310 mOsm. Cells were visualized using infrared differential interference phase contrast video-microscopy. Recordings were performed using AxoPatch 700B (Axon Instruments, Foster City, Calif.), digitized at 10 kHz and recorded using pClamp 9.2 (Axon Instruments, Foster City, Calif.). Patch pipette's resistance was 4-5 MΩ. Series resistance was not electronically compensated; however, cells in which series resistance varied by more than 25% were excluded from the analysis. Stimulation protocols were started at least 5 min following impalement to allow intracellular dialysis with the pipette solution. Excitatory post-synaptic currents (EPSCs) were evoked—using a bipolar stimulating electrode positioned <200 μm from the recorded cell—at 75% of the intensity producing maximal EPSCs. N-methyl-D-aspartic acid (NMDA) currents were recorded in the presence of blockers of α-amino-3-hydroxy-5-methyl-4-isoxazole-propionic acid (AMPA)/kainate (i.e., 30 μM CNQX) and of gamma-aminobutyric acid A (GABAA) receptors (i.e., 10 μM bicuculine methiodide). Cells were voltage clamped to +40 mV to alleviate NMDA receptor blockade and inactivate fast Na^+ currents. In some experiments, dihydrokainic acid (DHK, Tocris, Bristol, UK), 100 μM, was added to the extracellular solution to selectively block the astrocyte specific glutamate transporter, SLC1A2 (see Arriza et al., 1994).
To confirm that the transcriptional changes induced by albumin were associated with altered cellular functions, the clearance of extracellular glutamate and potassium in cortical slices 24 hours following albumin treatment in vivo was investigated. To measure synaptic glutamate levels during neuronal activation, the slowly inactivating (Lester et al., 1990) NMDA currents in cortical neurons were recorded by using the whole-cell patch configuration (in the presence of non-NMDA glutamate and GABA receptor blockers, see Methods). Cells were clamped at +40 mV to prevent a potential confounding effect of post-synaptic depolarization due to the accumulation of synaptic [K^+]o. […] Synaptic glutamate elicited by 50 extracellular stimulations at 2, 5, 10, 20, 50 and 100 Hz before and after adding the astrocytic SLC1A2 specific inhibitor, DHK was measured. In neurons from control animals, DHK had no effect on single EPSCs or EPSCs elicited at low stimulation frequencies (<20 Hz). […] The same experiments were then repeated 24 h following cortical application of albumin (i.e. during epileptogenesis). In contrast to the control experiments, DHK had no effect on EPSC amplitude in treated slices (FIG. 13b-c, right), supporting reduced expression of the astrocytic transporter SLC1A2.

cortical slices = assay: Extracellular potassium accumulation in cortical slices measured with ion-sensitive microelectrodes; assay type: cell-based, rat; conditions: slices 24 h following treatment with albumin; frequencies ≥10 Hz
Experimental: Electrophysiological recordings were obtained 6-10 h following perfusion with sACSF. Control slices were treated similarly, using sACSF without albumin. For extracellular recordings, glass microelectrodes (˜3 MΩ, 154 mM NaCl) were positioned in layer 4 of the neocortex. Slices were stimulated with brief (100 μs) pulses, by using bipolar stimulation electrodes placed at the border between white and gray matter in the same conical column. Trains of 50 stimuli were applied at 2, 5, 10, 20, 50 and 100 Hz, at 2.5× threshold stimulation intensity. […] Extracellular potassium concentrations ([K+]o) were measured with ion-sensitive microelectrodes (ISMEs; Lux and Neher, 1973: Jauch et al., 2002).
To study K^+ clearance from the extracellular space, K clearance was recorded from control and treated slices (24 h following treatment with albumin) by using ISMEs. Slower decay kinetics of [K^+]o in response to pressure application in BBB-treated animals has been reported (Ivens et al., 2007). Here, [K]o accumulation during neuronal activation at different frequencies of stimulation was tested. In slices from control animals, the increase in [K^+]o was limited to 25% of baseline levels (<3.75 mM) at all stimulation frequencies with the employed stimulation intensities and number of stimuli.

[3] = during albumin-induced epileptogenesis
[4] = 24 h following albumin treatment in vivo, clamped at +40 mV

T1 sequence (P31596 whole entry): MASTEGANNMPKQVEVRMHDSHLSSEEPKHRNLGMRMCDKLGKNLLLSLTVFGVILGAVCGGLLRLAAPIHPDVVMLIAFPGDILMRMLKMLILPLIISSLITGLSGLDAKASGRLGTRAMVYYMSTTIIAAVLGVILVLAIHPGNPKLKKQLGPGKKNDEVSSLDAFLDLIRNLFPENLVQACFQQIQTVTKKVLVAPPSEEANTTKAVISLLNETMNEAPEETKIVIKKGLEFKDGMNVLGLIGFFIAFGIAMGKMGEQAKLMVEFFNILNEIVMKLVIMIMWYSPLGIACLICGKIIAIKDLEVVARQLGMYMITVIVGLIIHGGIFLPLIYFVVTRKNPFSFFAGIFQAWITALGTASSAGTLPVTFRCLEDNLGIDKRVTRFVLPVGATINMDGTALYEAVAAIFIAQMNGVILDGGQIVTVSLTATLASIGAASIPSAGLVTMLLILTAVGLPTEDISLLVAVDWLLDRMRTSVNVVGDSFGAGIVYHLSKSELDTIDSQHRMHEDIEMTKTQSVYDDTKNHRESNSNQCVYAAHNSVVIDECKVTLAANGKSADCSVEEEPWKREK

albumin: bovine serum albumin, used to induce epileptogenesis
EEG complexity (fractal dimension) [1, 3]: decrease
EEG signal harmony [1, 3]: increase
number of seizure like events (SLEs) ([1]; one week following treatment): sharp increase
Mean single EPSC amplitude [2, 4]: 505±100 pA
Mean single EPSC rise-time [2, 4]: 14.5 ± 0.5 ms
EPSC amplitude on repetitive stimulation, compared to controls ([2]; 24 h following cortical application of albumin): stronger depression
[K+]o accumulation during neuronal activation, level reached (cortical slices): 6.7 mM

Reference: US10668049B2, “Methods of treating cognitive decline with transforming growth factor beta inhibitors” (The Regents of the University of California, priority 2008, dated 2020)
